From US20250215030A1, “STAT MODULATORS AND USES THEREOF” (Recludix Pharma, Inc., priority 2022, published 2025)

These compounds were tested against T1, pSTAT3 (pY705-STAT3) (Homo sapiens, UniProt P40763) (assay: MSD-pSTAT-PBMC Assay (pSTAT3, IL-6 stimulated)). Conditions: not given.
T1 construct: host or cells: cryopreserved PBMC
Format: cell-based
Excerpt: Cryopreserved Peripheral Blood Mononuclear Cells (PBMC) are from AllCells. Recombinant Human IL-4 and IL-6 are from Peprotech. Mouse monoclonal anti-STAT3 antibody, rabbit monoclonal anti-pY705-STAT3 antibody, rabbit monoclonal Anti-pY641-STAT6 antibody, and lysis buffer are from Cell Signaling Technology (CST). Mouse monoclonal anti-STAT6 antibody is from BioLegend. Assay plates, blocker, and anti-rabbit secondary antibody are from Meso Scale Discovery (MSD).
Cryopreserved PBMCs were thawed out and allowed to recover overnight in IMDM+10% heat-inactivated FBS prior to plating 50,000 (STAT3) or 25,000 (STAT6) cells per well in 96-well U-bottom tissue culture plates. Cells were treated with compound for 3 hrs, then stimulated with 10 ng/mL IL-6 (STAT3) or 1 ng/mL IL-4 (STAT6) for 10 min. Cells were then spun down and washed with ice-cold PBS prior to lysing the cell pellet with 1× lysis buffer (CST) with 1× HALT protease and phosphatase inhibitor cocktail (Thermo). Lysates were transferred to and incubated overnight at 4° C. with shaking in QuickPlex 96-well high bind assay plates (MSD) pre-coated overnight with 30 μL per well of 0.6 μg/mL mouse monoclonal anti-STAT3 antibody (STAT3) or 2 μg/mL mouse monoclonal anti-STAT6 antibody (STAT6) in 1×PBS, and pre-blocked for 1 hour with 3% Blocker-A (MSD). Captured protein in the assay plates were then washed and probed with 25 μL per well of 0.25 μg/ml rabbit monoclonal anti-pY705-STAT3 antibody (STAT3) or 0.18 μg/ml rabbit monoclonal Anti-pY641-STAT6 antibody (STAT6) in 1% Blocker-A for 1 hour at room temperature with shaking, then washed and probed with 25 ul per well of 1 ug/mi Sulfo-TAG Labeled Goat Anti-Rabbit Antibody (MSD) in 1% Blocker-A for 1 hour at room temperature with shaking. Assay plates were then washed and 150 μL of 1× Read Buffer-T (MSD) was added to each well prior to reading on an SQ120 MSD Plate Reader. Assay signal from each sample was subtracted by the signal from unstimulated control wells and normalized to DMSO control wells. IC50 values were calculated using Graph Pad Prism Dose-Response Nonlinear Regression with variable slope. For both pSTAT3 and pSTAT6 A=≤100 nM; B=>100-1000 nM; C=>1000-3000 nM; and D=>3 μM.

T1 sequence (P40763 whole entry): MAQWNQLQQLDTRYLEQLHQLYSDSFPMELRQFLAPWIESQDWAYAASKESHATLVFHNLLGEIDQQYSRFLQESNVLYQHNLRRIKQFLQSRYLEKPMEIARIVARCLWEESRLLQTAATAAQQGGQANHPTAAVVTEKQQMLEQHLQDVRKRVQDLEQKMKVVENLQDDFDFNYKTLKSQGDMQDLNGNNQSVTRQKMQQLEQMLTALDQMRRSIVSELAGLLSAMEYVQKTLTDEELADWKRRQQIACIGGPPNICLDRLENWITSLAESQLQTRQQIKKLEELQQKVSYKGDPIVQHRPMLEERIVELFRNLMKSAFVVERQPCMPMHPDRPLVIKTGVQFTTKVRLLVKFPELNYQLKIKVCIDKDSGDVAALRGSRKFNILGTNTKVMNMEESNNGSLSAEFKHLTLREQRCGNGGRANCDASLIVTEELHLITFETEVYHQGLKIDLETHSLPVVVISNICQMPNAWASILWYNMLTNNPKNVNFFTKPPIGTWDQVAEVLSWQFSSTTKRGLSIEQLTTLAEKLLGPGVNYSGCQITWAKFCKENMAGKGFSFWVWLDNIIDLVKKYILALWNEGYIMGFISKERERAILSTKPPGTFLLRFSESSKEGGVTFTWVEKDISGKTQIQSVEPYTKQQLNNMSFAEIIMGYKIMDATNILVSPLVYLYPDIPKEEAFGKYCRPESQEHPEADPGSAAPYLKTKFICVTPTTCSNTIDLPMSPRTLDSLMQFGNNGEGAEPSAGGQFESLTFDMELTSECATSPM

Question: Which IC50 does the source give for `CCCOC(=O)[C@H](C)NP(=O)(Oc1ccccc1)C(F)c1ccc2sc(C(=O)N[C@H]3C[C@@H]4C[C@@H]4C[C@H]4CC[C@@H](C(=O)N5CC(c6cnccc6N6CCC6)C5)N4C3=O)cc2c1` (single isomer, unassigned) [Compound 426] here?
Answer: The IC50 was < 0.1 µM.

Question: `CCCOC(=O)[C@H](C)N[P@@](=O)(Oc1ccccc1)[C@@H](F)c1ccc2sc(C(=O)N[C@H]3C[C@@H]4C[C@@H]4C[C@H]4CC[C@@H](C(=O)N5C[C@H](c6cccnc6)[C@@H](C#N)C56CC6)N4C3=O)cc2c1` (single isomer, unassigned) [Compound 431] was tested. Which IC50 did it give?
Answer: The IC50 was > 3 µM.

Question: With `CCCOC(=O)[C@H](C)N[P@@](=O)(Oc1ccccc1)[C@@H](F)c1ccc2sc(C(=O)N[C@H]3C[C@@H]4C[C@@H]4C[C@H]4CC[C@@H](C(=O)N5C[C@H](c6cnccc6N(C)C)CC56CC6)N4C3=O)cc2c1` (single isomer, unassigned) [Compound 434] as the compound, how does the IC50 read?
Answer: Its IC50 is < 0.1 µM.

Question: Which IC50 does the source give for `CCCOC(=O)[C@@H](C)NP(=O)(Cc1ccc2sc(C(=O)N[C@H]3C[C@@H]4C[C@]4(C)C[C@H]4CC[C@@H](C(=O)N5CC(c6cccnc6)C5)N4C3=O)cc2c1)Oc1ccccc1` (stereo in doubt) [Compound 240, propyl(((2-(((3S,6S,7aR,8aS,9aR)-8a-methyl-5-oxo-3-(3-(pyridin-3-yl)azetidine-1-carbonyl)decahydro-1H-cyclopropa[d]pyrrolo[1,2-a]azocin-6-yl)carbamoyl)benzo[b]thiophen-5-yl)methyl)(phenoxy)phosphoryl)-L-alaninate] here?
Answer: Its IC50 is < 0.1 µM.

Question: For `CCCOC(=O)[C@@H](C)NP(=O)(Cc1ccc2sc(C(=O)N[C@H]3C[C@H]4C[C@H]4C[C@H]4CC[C@@H](C(=O)N5CC(c6cnccc6C)C5)N4C3=O)cc2c1)Oc1ccccc1` (stereo in doubt) [Compound 242, propyl(((2-(((3S,6S,7aR,8aS,9aR)-3-(3-(4-methylpyridin-3-yl)azetidine-1-carbonyl)-5-oxodecahydro-1H-cyclopropa[d]pyrrolo[1,2-a]azocin-6-yl)carbamoyl)benzo[b]thiophen-5-yl)methyl)(phenoxy)phosphoryl)-L-alaninate], which IC50 is on record?
Answer: Its IC50 is < 0.1 µM.

Question: With `CCCOC(=O)[C@@H](C)NP(=O)(Oc1ccccc1)C(F)c1ccc2sc(C(=O)N[C@H]3C[C@@H]4C[C@@H]4C[C@H]4CC[C@@H](C(=O)N5C[C@@H]6[C@H]5CCN6C(C)=O)N4C3=O)cc2c1` (stereo in doubt) [Compound 291, propyl(((2-(((3S,6S,7aS,8aR,9aR)-3-((1S,5S)-2-acetyl-2,6-diazabicyclo[3.2.0]heptane-6-carbonyl)-5-oxodecahydro-1H-cyclopropa[d]pyrrolo[1,2-a]azocin-6-yl)carbamoyl)benzo[b]thiophen-5-yl)fluoromethyl)(phenoxy)phosphoryl)-L-alaninate] as the compound, how does the IC50 read?
Answer: Its IC50 is < 0.1 µM.

Question: `CCCOC(=O)[C@H](C)NP(=O)(Oc1ccccc1)C(F)c1ccc2sc(C(=O)N[C@H]3C[C@H]4C[C@H]4C[C@H]4CC[C@@H](C(=O)N5CC(c6cnccc6N6CCOCC6)C5)N4C3=O)cc2c1` (stereo in doubt) [Compound 409, propyl(((R)-fluoro(2-(((3S,6S,7aS,8aR,9aR)-3-(3-(4-morpholinopyridin-3-yl)azetidine-1-carbonyl)-5-oxodecahydro-1H-cyclopropa[d]pyrrolo[1,2-a]azocin-6-yl)carbamoyl)benzo[b]thiophen-5-yl)methyl)(phenoxy)phosphoryl)-L-alaninate] was tested. Which IC50 did it give?
Answer: Its IC50 is < 0.1 µM.

Question: `CCCOC(=O)[C@H](C)N[P@@](=O)(Oc1ccccc1)[C@H](F)c1ccc2sc(C(=O)N[C@H]3C[C@@H]4C[C@@H]4C[C@H]4CC[C@@H](C(=O)N5CC(c6cnccc6N(C)C)C5)N4C3=O)cc2c1` (stereo in doubt) [Compound 415, propyl((R)-((R)-(2-(((3S,6S,7aS,8aR,9aR)-3-(3-(4-(dimethylamino)pyridin-3-yl)azetidine-1-carbonyl)-5-oxodecahydro-1H-cyclopropa[d]pyrrolo[1,2-a]azocin-6-yl)carbamoyl)benzo[b]thiophen-5-yl)fluoromethyl)(phenoxy)phosphoryl)-L-alaninate] was tested. Which IC50 did it give?
Answer: Its IC50 is < 0.1 µM.

Question: Which IC50 does the source give for `CCCOC(=O)[C@H](C)NP(=O)(Oc1ccccc1)[C@@H](F)c1ccc2sc(C(=O)N[C@H]3C[C@H]4C[C@H]4C[C@H]4CC[C@@H](C(=O)N5CC(c6cnccc6N6CC[C@H]6COC)C5)N4C3=O)cc2c1` (stereo in doubt) [Compound 417, propyl(((R)-fluoro(2-(((3S,6S,7aS,8aR,9aR)-3-(3-(4-((S)-2-(methoxymethyl)azetidin-1-yl)pyridin-3-yl)azetidine-1-carbonyl)-5-oxodecahydro-1H-cyclopropa[d]pyrrolo[1,2-a]azocin-6-yl)carbamoyl)benzo[b]thiophen-5-yl)methyl)(phenoxy)phosphoryl)-L-alaninate] here?
Answer: Its IC50 is < 0.1 µM.

Same assay, conditions: PBMC, compound 3 hrs, then 10 ng/mL IL-6 for 10 min; MSD pY705-STAT3; read-out: pSTAT3

Question: Which IC50 does the source give for `CCCOC(=O)[C@H](C)N[P@](=O)(Oc1ccccc1)[C@@H](F)c1ccc2sc(C(=O)N[C@H]3C[C@@H]4C[C@@H]4C[C@H]4CC[C@@H](C(=O)N5C[C@H](c6cccnc6)[C@@H](C#N)C56CC6)N4C3=O)cc2c1` (single isomer, unassigned) [Compound 430] here?
Answer: The IC50 was > 3 µM.

Question: With `CCCOC(=O)[C@H](C)N[P@@](=O)(Oc1ccccc1)[C@@H](F)c1ccc2sc(C(=O)N[C@H]3C[C@@H]4C[C@@H]4C[C@H]4CC[C@@H](C(=O)N5C[C@@H](c6cnccc6N(C)C)CC56CC6)N4C3=O)cc2c1` (single isomer, unassigned) [Compound 432] as the compound, how does the IC50 read?
Answer: The IC50 was < 0.1 µM.

Question: With `CC(C)OC(=O)[C@H](C)N[P@@](=O)(Cc1ccc2sc(C(=O)N[C@H]3C[C@@H]4C[C@@H]4C[C@H]4CC[C@@H](C(=O)N5CC(C(=O)N6CCOCC6)C5)N4C3=O)cc2c1)Oc1ccccc1` (single isomer, unassigned) [Example 5] as the compound, how does the IC50 read?
Answer: Its IC50 is 1 to 3 µM.

Question: With `CC(C)OC(=O)[C@H](C)N[P@](=O)(Cc1ccc2sc(C(=O)N[C@H]3C[C@@H]4C[C@@H]4C[C@H]4CC[C@@H](C(=O)N5CC(C(=O)N6CCOCC6)C5)N4C3=O)cc2c1)Oc1ccccc1` (single isomer, unassigned) [Example 6] as the compound, how does the IC50 read?
Answer: Its IC50 is 1 to 3 µM.

Question: For `CCCOC(=O)C(C)NP(=O)(Oc1ccccc1)C(F)c1ccc2sc(C(=O)N[C@H]3C[C@@H]4C[C@@H]4C[C@H]4CC[C@@H](C(=O)N5C[C@H]6[C@@H]5CCN6c5cccnc5)N4C3=O)cc2c1` (stereo in doubt) [Compound 297, propyl ((fluoro(2-(((3S,6S,7aS,8aR,9aR)-5-oxo-3-((1S,5S)-2-(pyridin-3-yl)-2,6-diazabicyclo[3.2.0]heptane-6-carbonyl)decahydro-1H-cyclopropa[d]pyrrolo[1,2-a]azocin-6-yl)carbamoyl)benzo[b]thiophen-5-yl)methyl)(phenoxy)phosphoryl)-L-alaninate], which IC50 is on record?
Answer: Its IC50 is < 0.1 µM.

Question: Which IC50 does the source give for `CCCOC(=O)C(C)NP(=O)(Oc1ccccc1)C(F)c1ccc2sc(C(=O)N[C@H]3C[C@@H]4C[C@@H]4C[C@H]4CC[C@@H](C(=O)N5C[C@@H]6[C@H]5CCN6c5cccnc5)N4C3=O)cc2c1` (stereo in doubt) [Compound 298, propyl ((fluoro(2-(((3S,6S,7aS,8aR,9aR)-5-oxo-3-((1R,5R)-2-(pyridin-3-yl)-2,6-diazabicyclo[3.2.0]heptane-6-carbonyl)decahydro-1H-cyclopropa[d]pyrrolo[1,2-a]azocin-6-yl)carbamoyl)benzo[b]thiophen-5-yl)methyl)(phenoxy)phosphoryl)-L-alaninate] here?
Answer: The IC50 was < 0.1 µM.

Question: Which IC50 does the source give for `O=C(OCOP(=O)(Cc1ccc2sc(C(=O)N[C@H]3C[C@@H]4C[C@@H]4C[C@H]4CC[C@@H](C(=O)N5CC(C(=O)N6CCOCC6)C5)N4C3=O)cc2c1)OCOC(=O)OC1CCOCC1)OC1CCOCC1` [Compound 130, ((((2-(((3S,6S,7aS, 8aR,9aR)-3-(3-(morpholine-4-carbonyl)azetidine-1-carbonyl)-5-oxodecahydro-1H-cyclopropa[d]pyrrolo[1,2-a]azocin-6-yl)carbamoyl)benzo[b]thiophen-5-yl)methyl)phosphoryl)bis (oxy))bis (methylene) bis(tetrahydro-2H-pyran-4-yl) bis(carbonate)] here?
Answer: The IC50 was > 3 µM.

Question: Which IC50 does the source give for `CC(C)(CO)C(=O)OCOP(=O)(OCOC(=O)C(C)(C)CO)C(F)(F)c1ccc2sc(C(=O)N[C@H]3C[C@@H]4C[C@@H]4C[C@H]4CC[C@@H](C(=O)N5CC(C(=O)N6CCOCC6)C5)N4C3=O)cc2c1` [Compound 132, (((difluoro(2-(((3S,6S,7aS, 8aR,9aR)-3-(3-(morpholine-4-carbonyl)azetidine-1-carbonyl)-5-oxodecahydro-1H-cyclopropa[d]pyrrolo[1,2-a]azocin-6-yl)carbamoyl)benzo[b]thiophen-5-yl)methyl)phosphoryl)bis(oxy)) bis(methylene) bis(3-hydroxy-2,2-dimethyl-propanoate)] here?
Answer: The IC50 was > 3 µM.
